Converted amounts (≈) assume the structure as drawn. Read-outs that look alike come from different tables or passages of the source.
Assays:
[1] = target: T1, S. aureus DnaE (DNA polymerase III α-subunit homolog from Staphylococcus aureus) (Staphylococcus aureus, UniProt Q5HF71); experiment: biochemical; format: biochemical
T1 construct: SaDnaE (S. aureus DnaE residues 1-1065); 6xHis (N); made in house; host or cells: E. coli BL21-AI
T1 sequence (Q5HF71 1-1065): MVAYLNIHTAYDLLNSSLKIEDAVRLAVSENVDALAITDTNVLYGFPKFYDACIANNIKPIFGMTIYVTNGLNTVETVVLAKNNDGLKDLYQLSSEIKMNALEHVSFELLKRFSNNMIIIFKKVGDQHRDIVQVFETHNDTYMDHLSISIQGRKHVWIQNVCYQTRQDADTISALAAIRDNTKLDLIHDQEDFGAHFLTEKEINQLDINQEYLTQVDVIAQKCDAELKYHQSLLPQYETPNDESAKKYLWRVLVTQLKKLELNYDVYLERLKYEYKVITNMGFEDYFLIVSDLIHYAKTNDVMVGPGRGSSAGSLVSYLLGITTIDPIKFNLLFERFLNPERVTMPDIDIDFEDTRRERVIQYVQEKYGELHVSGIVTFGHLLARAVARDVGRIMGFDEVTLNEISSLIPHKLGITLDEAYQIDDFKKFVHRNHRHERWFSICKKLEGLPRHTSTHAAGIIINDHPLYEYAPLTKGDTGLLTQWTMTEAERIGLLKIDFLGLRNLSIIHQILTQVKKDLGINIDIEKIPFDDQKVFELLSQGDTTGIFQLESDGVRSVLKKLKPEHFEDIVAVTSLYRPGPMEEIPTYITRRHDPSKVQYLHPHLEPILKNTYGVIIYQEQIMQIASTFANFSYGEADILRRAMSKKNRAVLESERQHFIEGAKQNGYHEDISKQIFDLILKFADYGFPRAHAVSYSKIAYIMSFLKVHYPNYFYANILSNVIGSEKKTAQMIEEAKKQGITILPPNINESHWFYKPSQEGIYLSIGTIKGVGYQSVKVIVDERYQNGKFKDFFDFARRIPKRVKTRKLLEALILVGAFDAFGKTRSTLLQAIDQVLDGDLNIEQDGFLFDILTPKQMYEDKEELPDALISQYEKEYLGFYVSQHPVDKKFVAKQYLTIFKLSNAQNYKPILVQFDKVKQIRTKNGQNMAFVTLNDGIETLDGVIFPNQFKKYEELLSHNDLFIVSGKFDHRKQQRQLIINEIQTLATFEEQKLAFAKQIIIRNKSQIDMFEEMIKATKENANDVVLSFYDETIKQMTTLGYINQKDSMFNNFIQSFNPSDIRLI
Procedure: (§1) Plasmids encoding EcDnaE (E. coli DnaE residues 1-1160) and SaDnaE (S. aureus DnaE residues 1-1065) with 6×His N-terminal tags, were overexpressed in BL21(DE3) and BL21-AI cells (Invitrogen), respectively. Cells were grown in LB media to an OD ˜0.45 pelleted and then resuspended in Minimal Media, as described in Pryor et al. (1997, Protein Expr Purif. 10:309-19), and inducer (0.4 mM IPTG or 0.2% arabinose) for 21 hours at 18° C. at 220 rpm. Cells were then harvested, frozen for 20 minutes at −80° C. and thawed. Pellets were resuspended in 1× Talon buffer (50 mM Sodium Phosphate, 300 mM Sodium Chloride, pH 7.4) +10% glycerol +Roche PI's (-EDTA). Cells were lysed with two passes through a French press, then centrifuged for 45 minutes at 40,000 rpm (70Ti, Beckman). Supernatant was bound to 5 mL TALON resin (CLONTECH) for 1 hour at room temperature on Nutator. TALON resin was washed with 10 mM imidizole, and DnaE was eluted with 250 mM imidizole. Eluate was concentrated and run on a size exclusion column (SEC200, GE Healthcare) in the following buffer; 25 mM HEPES, 30 mM NaCl,1 mM CaCl2, 5% glycerol, pH 7.9. Pool SEC fractions based on SDS-PAGE run, aliquot, freeze, and store at -80° C.
(§2) DnaE was diluted in 50 mM potassium phosphate pH 7.5, 5 mM BME, 10% glycerol and 200 mM NaCl prior to use.
(§3) The purpose of the DnaE single enzyme assay is to determine the ability of compounds to inhibit the DNA polymerase III α-subunit homolog from Staphylococcus aureus or the α-subunit from Escherichia coli without the other components of the replication machinery. The DnaE single enzyme assay was a modified version of the method, Standard Pol III Assay Using Activated DNA and Four dNTPs, described by Butler et al., 2008, Methods in Molecular Medicine: New Antibiotic Targets 142:25-36. Briefly, in 96-well plates, enzyme was added to a mixture containing 30 mM Tris-HCl pH 7.5, 20% glycerol, 4 mM DTT, 10 mM Mg acetate, 0.025 mM dATP, 0.025 mM dGTP, 0.025 mM dc:TP, 0.011 mM ^3H-dTTP 1 mCi/ml (Perkin-Elmer), and 0.298 mg/mL Dnase I (Sigma) treated “activated” Calf Thymus DNA (Worthington Biochemical). The assay was set up so that 5 μl of compound was distributed to the plates, 90 μl of reaction mix was added to the compound, and 5 μl of enzyme was added to start the reaction. Assays were initiated by the addition of 0.8 μg/ml E. coli or 0.05 μg/ml S. aureus DnaE, incubated for 30 min at 30° C., and terminated by the addition of a 20% trichloroacetic acid and 0.2% sodium pyrophosphate solution. Precipitated labeled DNA was collected on Glass-fiber Filtermat A using Micro96 Harvester, and the filters were washed, dried, and counted in a Microbeta Trilux (Perkin Elmer). Serial dilutions of compounds (in DMSO) were added to the plates before enzyme addition.

[2] = target: T2, E. coli DnaE (DNA polymerase III α-subunit from Escherichia coli) (Escherichia coli, UniProt P10443); experiment: In vitro DnaE single enzyme assay (E. coli); format: biochemical
T2 construct: EcDnaE (E. coli DnaE residues 1-1160); 6xHis (N); made in house; host or cells: E. coli BL21(DE3)
Procedure: as §1, §2, §3

[3] = test system: Streptococcus pneumoniae MB6357 (CL 2883); experiment: Nargenicin antibacterial assay (MIC), S. pneumoniae; format: cell-based; settings: for MIC: Streptococcus pneumoniae
[4] = test system: Escherichia coli MB5747 (LS 883, tolC); experiment: microbe, parasite or virus in culture; format: cell-based; settings: * = some reduction of growth versus control at […]; for MIC: Escherichia coli, read-out: E. coli LS883 tolC (MIC), MHII broth
[5] = test system: Pseudomonas aeruginosa MB5890 (CB1101, efflux-deleted); experiment: microbe, parasite or virus in culture; format: cell-based; settings: * = some reduction of growth versus control at […]; for MIC: Pseudomonas aeruginosa, read-out: P. aeruginosa MB5890 efflux-del (MIC), MHII broth
[6] = read-out: S. aureus DnaE IC50 (converted)
[7] = read-out: S. pneumoniae MB2883 (MIC)

T2 sequence (P10443 whole entry, the tested form may be a part): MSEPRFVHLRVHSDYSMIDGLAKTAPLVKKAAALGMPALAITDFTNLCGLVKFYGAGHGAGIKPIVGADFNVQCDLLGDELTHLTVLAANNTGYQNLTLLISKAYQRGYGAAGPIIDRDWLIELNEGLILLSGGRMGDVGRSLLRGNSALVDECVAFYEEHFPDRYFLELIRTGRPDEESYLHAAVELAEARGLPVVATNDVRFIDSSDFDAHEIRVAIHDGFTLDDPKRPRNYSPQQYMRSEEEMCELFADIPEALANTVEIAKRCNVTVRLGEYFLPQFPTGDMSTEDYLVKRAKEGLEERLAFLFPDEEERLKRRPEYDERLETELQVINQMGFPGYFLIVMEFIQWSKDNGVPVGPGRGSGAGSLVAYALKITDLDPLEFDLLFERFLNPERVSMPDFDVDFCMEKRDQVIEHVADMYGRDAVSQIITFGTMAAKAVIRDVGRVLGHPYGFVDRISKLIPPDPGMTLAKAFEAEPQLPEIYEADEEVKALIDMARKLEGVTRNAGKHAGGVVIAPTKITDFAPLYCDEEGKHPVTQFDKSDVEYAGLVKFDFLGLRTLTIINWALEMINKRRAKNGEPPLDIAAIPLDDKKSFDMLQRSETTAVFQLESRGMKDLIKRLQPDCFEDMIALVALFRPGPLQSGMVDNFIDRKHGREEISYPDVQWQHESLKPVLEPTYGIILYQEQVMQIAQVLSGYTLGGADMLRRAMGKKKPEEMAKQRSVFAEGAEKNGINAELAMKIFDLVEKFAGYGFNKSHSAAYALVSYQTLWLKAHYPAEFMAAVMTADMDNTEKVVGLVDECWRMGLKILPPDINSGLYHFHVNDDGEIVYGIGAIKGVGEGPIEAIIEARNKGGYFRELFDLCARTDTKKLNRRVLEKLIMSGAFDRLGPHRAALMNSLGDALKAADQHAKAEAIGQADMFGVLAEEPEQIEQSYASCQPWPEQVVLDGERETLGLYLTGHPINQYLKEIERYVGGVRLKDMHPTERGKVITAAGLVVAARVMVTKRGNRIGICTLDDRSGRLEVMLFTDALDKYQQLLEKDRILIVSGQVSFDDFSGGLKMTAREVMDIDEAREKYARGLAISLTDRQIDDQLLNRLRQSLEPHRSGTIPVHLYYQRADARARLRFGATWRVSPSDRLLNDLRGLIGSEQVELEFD

Row | SMILES | IC50 ([1]; S. aureus DnaE IC50) | IC50 ([2]; E. coli DnaE IC50) | IC50 [1, 6] | MIC [4] | MIC [5] | MIC [3, 7] | also measured
1 | CCCNC(=O)O[C@H](C)[C@H]1OC(=O)[C@@H](OC)C[C@H]2C=C[C@H]3[C@H]4O[C@]2(/C(C)=C/[C@H]1C)[C@@H]3[C@H](O)[C@@H](C)[C@H]4OC(=O)c1ccc[nH]1 [Example 2, (3R,4S,7S,8aS,10aR,11R,12R,13R,14R,14aS,14bS,E)-14-hydroxy-7-methoxy-1,3,13-trimethyl-6-oxo-4-((R)-1-((propylcarbamoyl)oxy)ethyl)-3 ,4,6,7,8,8a,10a,11,12,13,14,14a-dodecahydro-11,14b-epoxynaphtho[2,1-e]oxecin-12-yl 1H-pyrrole-2-carboxylate] | 35 nM | 51.6 µM | – | – | – | – | –
2 | CO[C@H]1CC2C=C[C@H]3[C@H]4O[C@]2(/C(C)=C/[C@@H](C)[C@@H]([C@@H](C)OC(=O)OC2CCC(O)CC2)OC1=O)[C@@H]3[C@H](O)[C@@H](C)[C@H]4OC(=O)c1ccc[nH]1 (single isomer, unassigned) [Example 35] | – | – | – | – | – | – | S. pneumoniae MB2883 (MIC) ([3]; Isosensitest broth, * = some reduction of growth versus control at […]): 64 µg/mL; IC50 ([1]; read-out: S. aureus DnaE IC50): 10.6 nM; E. coli LS883 tolC (MIC) ([4]; MHII broth): 32 µg/mL; IC50 ([2]; read-out: E. coli DnaE IC50 (converted)): > 76 µM; P. aeruginosa MB5890 efflux-del (MIC) ([5]; MHII broth): >128 µg/mL
3 | CO[C@H]1C[C@H]2C=C[C@H]3[C@H]4O[C@]2(/C(C)=C/[C@@H](C)[C@@H]([C@H](C)N2C(=O)c5ccccc5C2=O)OC1=O)[C@@H]3[C@H](O)[C@@H](C)[C@H]4OC(=O)c1ccc[nH]1 [Example 172] | – | 63.6 µM | ~7.76 nM | 16 µg/mL (≈ 24.8 µM) | > 128 µg/mL | – | MIC ([3]; read-out: S. pneumoniae MB2883 (MIC), Isosensitest broth, * = some reduction of growth versus control at […]): > 128 µg/mL
4 | CO[C@H]1CC2C=C[C@H]3[C@H]4O[C@]2(/C(C)=C/[C@@H](C)[C@@H]([C@@H](C)OC(=O)OCCCO)OC1=O)[C@@H]3[C@H](O)[C@@H](C)[C@H]4OC(=O)c1ccc[nH]1 (stereo partly drawn) [Example 26, (3R,4S,7S,10aR,11R,12R,13R,14R,14aS,14bS,E)-14-hydroxy-4-((R)-1-(((3-hydroxypropoxy)carbonyl)oxy)ethyl)-7-methoxy-1,3,13-trimethyl-6-oxo-3,4,6,7,8,8a,10a,11,12,13,14,14a-dodecahydro-11,14b-epoxynaphtho[2,1-e]oxecin-12-yl 1H-pyrrole-2-carboxylate] | < 9.71 nM | 130 µM | – | – | – | – | –
5 | CO[C@H]1C[C@H]2C=C[C@H]3[C@H]4O[C@]2(/C(C)=C/[C@@H](C)[C@@H]([C@@H](C)O)OC1=O)[C@@H]3[C@H](O)[C@@H](C)[C@H]4OC(=O)c1ccsc1 [Example 183] | – | 9.76 µM | < 11.3 nM | 1 µg/mL (≈ 1.88 µM) | 16 µg/mL (≈ 30 µM) | 64 µg/mL (≈ 120 µM) | –
6 | CO[C@H]1C[C@H]2C=CC3C4[C@H](O)[C@@H](C)[C@@H](OC(=O)c5ccc[nH]5)[C@@H]3O[C@]42/C(C)=C/[C@@H](C)[C@@H]([C@@H](C)OC(=O)C(=O)OCCN(C)C)OC1=O.O=C(O)C(F)(F)F [Example 205] | – | 7.76 µM | < 7.76 nM | 2 µg/mL | 64 µg/mL | > 128 µg/mL | –
7 | CC[C@H]1OC(=O)[C@@H](OC)C[C@H]2C=C[C@H]3[C@H]4O[C@]2(/C(C)=C/[C@H]1C)[C@@H]3[C@H](O)C(C)[C@H]4C[N+](=O)[O-] (stereo partly drawn) [Example 190, (3R,4R,7S,8aS,10aR,11R,12S,14R,14aS,14bS,E)-4-ethyl-14-hydroxy-7-methoxy-1,3,13-trimethyl-12-(nitromethyl)-3,4,8,8a,10a,11,12,13,14,14a-decahydro-11,14b-epoxynaphtho[2,1-e]oxecin-6(7H)-one] | – | 66.7 µM | 6670 nM | 64 µg/mL (≈ 142 µM) | > 64 µg/mL | > 64 µg/mL | –
8 | CO[C@H]1C[C@H]2C=C[C@H]3[C@H]4O[C@]2(/C(C)=C/[C@@H](C)[C@@H]([C@@H](C)OC(=O)CBr)OC1=O)[C@@H]3[C@H](O)[C@@H](C)[C@H]4OC(=O)c1ccc[nH]1 [Example 56, (3R,4S,7S,8aS,10aR,11R,12R,13R,14R,14aS,14bS,E)-4-((R)-1-(2-bromoacetoxy)ethyl)-14-hydroxy-7-methoxy-1,3,13-trimethyl-6-oxo-3,4,6,7,8,8a,10a,11,12,13,14,14a-dodecahydro-11,14b-epoxynaphtho[2,1-e]oxecin-12-yl 1H-pyrrole-2-carboxylate] | < 9.43 nM | 48.7 µM | – | – | – | – | –

— patent publication US9944654B2, “Nargenicin compounds and uses thereof as antibacterial agents” (priority 2014, dated 2018)
